Data as given in patent publication US9174977B2, “2-azabicyclo[4.1.0]heptane derivatives as orexin receptor antagonists for the treatment of certain disorders” (Rottapharm Biotech S.r.l., priority 2012, dated 2015).

Tests used:
human OX2 receptors = target: T1, human OX2 receptors (Homo sapiens, UniProt O43614); assay: antagonistic activity against human OX2 receptor, calcium fluorimetry (Fluo-4NW) in transfected HEK-293 cells; assay type: cell-based; conditions: HEK-293 cells transfected with human recombinant OX2, activated with orexin-B 10 nM; pKb = co-logarithm of apparent dissociation constant (modified Cheng Prusoff)
T1 construct: expressed in transfected cells; host or cells: HEK-293 cells
T1 sequence (O43614 1-444): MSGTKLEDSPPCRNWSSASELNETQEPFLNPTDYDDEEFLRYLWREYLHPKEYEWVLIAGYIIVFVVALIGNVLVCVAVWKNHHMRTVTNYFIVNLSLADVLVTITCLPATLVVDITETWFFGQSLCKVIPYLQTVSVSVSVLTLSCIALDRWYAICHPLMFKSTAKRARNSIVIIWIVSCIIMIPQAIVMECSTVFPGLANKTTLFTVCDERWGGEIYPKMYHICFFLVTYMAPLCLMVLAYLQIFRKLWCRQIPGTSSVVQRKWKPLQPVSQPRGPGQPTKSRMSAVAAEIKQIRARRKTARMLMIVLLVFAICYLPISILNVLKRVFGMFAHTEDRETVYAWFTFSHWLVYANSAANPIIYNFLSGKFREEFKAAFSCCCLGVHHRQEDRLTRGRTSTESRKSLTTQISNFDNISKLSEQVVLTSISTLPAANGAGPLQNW
Description: (§1) In a typical experiment, the antagonistic activity against human OX1 and OX2 receptors is determined by using CHO e HEK-293 cells transfected with human recombinant OX1 and OX2 receptors respectively, seeded at density of 2 and 3×10^4 cells/well respectively in a 96 fluorimetry well plate. Thus the plate was loaded with the calcium dye (Fluo-4NW/probenecid in HBSS, Hepes 20 mM, pH 7,4; Invitrogen) at 37° C. for 60 min. Afterward the temperature was equilibrated at 22° C. for 15 min and the [Ca2+]i measured directly on the plate by using a fluorescent plate reader (CellLux Perkin Elmer).
(§2) Invention compounds were dissolved in DMSO, diluted in HBSS (DMSO, 0.3% final) and added to the wells. After 5 min CHO cells were activated with orexin-A, 3 nM while HEK-293 cells were activated with orexin-B, 10 nM.
(§3) The compounds, dissolved in DMSO and diluted in the medium (DMSO, 0.3% final), have been analysed in the 1 nM-1 μM concentration range (every concentration in duplicate). The antagonistic activity has been expressed as pKb (co-logarithm of the apparent dissociation constant calculated by using the modified Cheng Prusoff equation).
(§4) The results are expressed as percent of control specific […] response ((measured specific response/control specific agonist response)×100) obtained in the presence of the test compounds.
(§5) The IC50 values (concentration causing a half-maximal inhibition of the control specific agonist response) were determinated by non-linear regression analysis of the concentration curves generated with mean replicate values using hill equation curve fitting. The IC50 values are obtained by the arithmetical mean of at least two experiments.

human OX1 receptors = target: T2, human OX1 receptors (Homo sapiens, UniProt O43613); assay: antagonistic activity against human OX1 receptor, calcium fluorimetry (Fluo-4NW) in transfected CHO cells; assay type: cell-based; conditions: CHO cells transfected with human recombinant OX1, activated with orexin-A 3 nM; pKb = co-logarithm of apparent dissociation constant (modified Cheng Prusoff)
T2 construct: expressed in transfected cells; host or cells: CHO cells
T2 sequence (O43613 1-425): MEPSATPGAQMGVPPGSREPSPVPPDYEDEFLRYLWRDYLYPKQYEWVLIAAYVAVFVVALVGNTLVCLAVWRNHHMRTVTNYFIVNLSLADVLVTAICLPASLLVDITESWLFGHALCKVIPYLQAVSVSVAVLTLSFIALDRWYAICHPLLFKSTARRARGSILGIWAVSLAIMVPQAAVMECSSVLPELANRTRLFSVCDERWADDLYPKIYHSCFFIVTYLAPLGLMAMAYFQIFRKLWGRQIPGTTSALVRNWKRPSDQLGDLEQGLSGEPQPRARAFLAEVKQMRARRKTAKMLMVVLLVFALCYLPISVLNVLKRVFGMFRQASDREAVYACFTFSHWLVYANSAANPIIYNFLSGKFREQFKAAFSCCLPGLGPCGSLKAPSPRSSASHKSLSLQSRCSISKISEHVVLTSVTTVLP
Description: as §1, §2, §3, §4, §5

Kb (human OX2 receptors) [nM]	Kb (human OX1 receptors) [nM]	Structure (SMILES)
39.8	2.51	Cc1ccc(-c2ncccn2)c(C(=O)N2[C@H](CNc3ccc(C(F)(F)F)cn3)CC[C@@H]3C[C@@H]32)c1 [Compound 4a, (5-methyl-2-(pyrimidin-2-yl)phenyl)((1S,3S,6R)-3-(((5-(trifluoromethyl)pyridin-2-yl)amino)methyl)-2-azabicyclo[4.1.0]heptan-2-yl)methanone]
10	7.94	N#Cc1ccc(-c2ncccn2)c(C(=O)N2[C@H](CNc3cc(C(F)(F)F)ccn3)CC[C@H]3C[C@H]32)c1 [Compound 1h, 4-(pyrimidin-2-yl)-3-((1R,3S,6S)-3-(((4-(trifluoromethyl)pyridin-2-yl)amino)methyl)-2-azabicyclo[4.1.0]heptane-2-carbonyl)benzonitrile]
12.6	2.51	O=C(c1cc(Cl)ccc1-c1ncccn1)N1[C@H](CNc2ccc(C(F)(F)F)cn2)CC[C@H]2C[C@H]21 [Compound 1e, (5-chloro-2-(pyrimidin-2-yl)phenyl)((1R,3S,6S)-3-(((5-(trifluoromethyl)pyridin-2-yl)amino)methyl)-2-azabicyclo[4.1.0]heptan-2-yl)methanone]
15.8	0.794	O=C(c1cc(Cl)ccc1-c1ncccn1)N1[C@H](CNc2ccc(Cl)cn2)CC[C@H]2C[C@H]21 [Compound 1f, (5-chloro-2-(pyrimidin-2-yl)phenyl)((1R,3S,6S)-3-(((5-chloropyridin-2-yl)amino)methyl)-2-azabicyclo[4.1.0]heptan-2-yl)methanone]
3.98	1.26	Cc1ccc(-c2ncccn2)c(C(=O)N2[C@H](CNc3ccc(C(F)(F)F)cn3)CC[C@H]3C[C@H]32)c1 [Compound 1d, (5-methyl-2-(pyrimidin-2-yl)phenyl)((1R,3S,6S)-3-(((5-(trifluoromethyl)pyridin-2-yl)amino)methyl)-2-azabicyclo[4.1.0]heptan-2-yl)methanone]
63.1	1.26	N#Cc1ccc(-c2ncccn2)c(C(=O)N2[C@H](COc3ccc(Cl)cn3)CC[C@H]3C[C@H]32)c1 [Compound 3a, 3-((1R,3S,6S)-3-(((5-chloropyridin-2-yl)oxy)methyl)-2-azabicyclo[4.1.0]heptane-2-carbonyl)-4-(pyrimidin-2-yl)benzonitrile]
2.51	2.51	Cc1nc(C(=O)N2[C@H](CNc3ccc(C(F)(F)F)cn3)CC[C@H]3C[C@H]32)c(-c2ccccc2)s1 [Compound 2a, (2-methyl-5-phenylthiazol-4-yl)((1R,3S,6S)-3-(((5-(trifluoromethyl)pyridin-2-yl)amino)methyl)-2-azabicyclo[4.1.0]heptan-2-yl)methanone]
15.8	1	O=C(c1cc(Cl)ccc1-c1ncccn1)N1[C@H](COc2ccc(Cl)cn2)CC[C@H]2C[C@H]21 [Compound 3e, (5-chloro-2-(pyrimidin-2-yl)phenyl)((1R,3S,6S)-3-(((5-chloropyridin-2-yl)oxy)methyl)-2-azabicyclo[4.1.0]heptan-2-yl)methanone]
50.1	1	Cc1ccc(-c2ncccn2)c(C(=O)N2[C@H](COc3ccc(Cl)cn3)CC[C@H]3C[C@H]32)c1 [Compound 3f, ((1R,3S,6S)-3-(((5-chloropyridin-2-yl)oxy)methyl)-2-azabicyclo[4.1.0]heptan-2-yl)(5-methyl-2-(pyrimidin-2-yl)phenyl)methanone]
10	5.01	N#Cc1ccc(-c2ncccn2)c(C(=O)N2[C@H](CNc3ccc(C(F)(F)F)cn3)CC[C@H]3C[C@H]32)c1 [Compound 1b, 4-(pyrimidin-2-yl)-3-((1R,3S,6S)-3-(((5-(trifluoromethyl)pyridin-2-yl)amino)methyl)-2-azabicyclo[4.1.0]heptane-2-carbonyl)benzonitrile]
12.6	0.794	Cc1ccc(-c2ncccn2)c(C(=O)N2[C@H](CNc3ccc(Cl)cn3)CC[C@H]3C[C@H]32)c1 [Compound 1c]
